Source: patent US6949586B2, “Synergistic composition of trans-tetracos-15-enoic acid and Apocynin and method of treatment for hepatotoxicity” (Council of Scientific Research, priority 2002, dated 2005)

Experiments:
Assay type in all cases: in vivo
[1] = test system: bile flow and bile solids; test: Chloretic activity: bile flow and bile solids after bile duct cannulation; conditions: rats, 50 mg kg−1 i.d.; bile collected 0-5 hours; mean ± SE
Source text: The liver, by producing bile, plays an important role in digestion. The presence of bile in the intestine is necessary to accomplish the digestion and absorption of fats as well as absorption of the fat-soluble vitamins—A, D, E & K. Bile is also an important vehicle of excretion. It removes many drugs, toxins, bile pigments and various inorganic substances either derived from the diet or synthesized by the body as cholesterol or as cholic acid.
Effect on the liver bile flow of test drug and that of vehicle is carried out after cannulating the bile duct in normal anaesthesied rats. Bile collected is from each animal from 0-5 hours (Klaassen, 1969, Donal et al. 1953). (Table 5)

[2] = test system: galactosamine, paracetamol and CCl4 as hepatotoxins; test: Earlier RRL Jammu study of hepatoprotective effect against galactosamine, paracetamol and CCl4; conditions: synthesized constituent; silymarin as reference material
[3] = test system: Acetaminophen (APAP) induced hepatotoxicity; test: Paracetamol (Acetaminophen, APAP) induced hepatotoxicity after diethyl-ether inhalation; conditions: mice, 50 mg kg−1 p.o., mean ± S.E.
Source text: Paracetamol (APAP, Acetaminophen): It is a therapeutic agent widely used as analgesic/antipyretic drug. When taken in large doses it causes hepatic necrosis which leads to biochemical changes having clinical features similar to those of acute viral hepatitis in humans (Proudfoot and Wright, 1970). The similar effect is observed in animals. The toxic effect can be potentiated if it is given several hours after the anesthetic ether inhalation (Wells et. al., 1986). Liver injury is induced by injecting paracetamol (200 mg.kg^-1) interaperitoneally in normal saline (pH 9.4) six hour after inhalation of anesthetic ether (4 ml/4 min/6 animals) in a closed chamber. The control animals received the equal volume of vehicle. […] (Table 2) GPT and GOT: Pyruvate formed by transamination reaction is determined spectrophotometrically after reaction with 2,4-dinitrophenylhydrazine (Reitman and Frankel, 1957). ALP: p-nitrophenol formed in alkaline medium is measured spectrophotometrically using p-nitrophenyl phosphate as substrate (Walter and Schutt, 1974). Bilirubin : Total bilirubin is measured by diazotization reaction with NaNO2 (Malloy and Evelyn, 1937) Triglycerides: Triglycerides from serum are extracted with isopropanol and sopanified with KOH. The liberated glycerol is converted to formaldehyde by periodate and determined after reaction with acetyl acetone. […]

Row | Compound | Bile flow (ml %), % Increase (as compared to normal) [1] [%] | Bile solids (mg %), % Increase (as compared to normal) [1] [%] | hepatoprotective effect against galactosamine, paracetamol and CCl4 as hepatotoxins [2] | Hepatic Lipid Peroxidation [3] [n moles MDA/g liver]
1 | C[C@H](CCC(=O)O)[C@H]1CC[C@H]2[C@@H]3C(=O)C[C@@H]4CC(=O)CC[C@]4(C)[C@H]3CC(=O)[C@]12C [DHC, Dehydrocholic acid] | 38.40 ± 2.76 | 28.13 ± 3.89 |  | 
2 | CCCCCCCC/C=C/CCCCCCCCCCCCCC(=O)O [TCA, trans-tetracos-15-enoic acid] |  |  | dose related hepatoprotective effect | 44.24 ± 2.22
